According to PMC3142127, “Structural Analysis of Papain-Like NlpC/P60 Superfamily Enzymes with a Circularly Permuted Topology Reveals Potential Lipid Binding Sites” (PLoS ONE, 2011):

Molecular target: T1, BcPPNE (Bacillus cereus, UniProt Q74NK7)
T1 construct: gene BCE_A0238; weak tetramer in solution
T1 sequence (Q74NK7 1-195): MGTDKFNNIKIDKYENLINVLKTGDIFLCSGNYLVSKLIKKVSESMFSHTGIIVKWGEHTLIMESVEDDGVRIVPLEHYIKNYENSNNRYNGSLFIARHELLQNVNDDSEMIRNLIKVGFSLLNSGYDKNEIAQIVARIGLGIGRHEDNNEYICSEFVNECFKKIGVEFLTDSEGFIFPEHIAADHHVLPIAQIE
Experiment: Thermofluor (thermal shift)
Assay type: binding
Details: no shift value printed

SMILES	Thermofluor (thermal shift)	Thermofluor (thermal shift) (crystals soaked at 1 mM showed no ligand density, L-Lys remained bound)
N=C(N)NCCC[C@H](N)C(=O)O [L-arginine]	Thermofluor experiments indicated that BcPPNE also binds L-arginine and O-phospho-L-serine	–
N[C@@H](COP(=O)(O)O)C(=O)O [O-phospho-L-serine]	–	Thermofluor experiments indicated that BcPPNE also binds L-arginine and O-phospho-L-serine
